The values that follow come from patent US6455077B2, “Herbal composition and method of manufacturing such composition for the management of gynecological disorders” (Dabur Research Foundation, priority 2001, dated 2002).

The assay relates to rat isolated uterus. Description: Uterotonic (oxytocic) activity on isolated uterus of stilbestrol-primed rats, compared with 5-HT. Details: species or system Wistar female albino rats. The settings on record: isolated uterus horn of stilbestrol dipropionate (1 mg/kg i.p., 24 h) pre-treated rats, de Jalon's solution. The protocol:
The above two samples were assayed for their effect on Uterotonic activity using Wistar female albino rats.
The uterotonic property of the test extracts were assessed in two test areas.
1. The oxytocic activity of the Sample A and Sample B is compared with uterine stimulant 5-HT.
Female rats weighing between 150-200 g were pre-treated with stilbestrol dipropionate, 1 mg/kg intra peritoneally 24 h prior to the experiment. The rats were killed by a swift blow on the head and exsanguinated. The uterus of rat dissected and the two horns divided. One horn is suspended in the bath. The rhythmic contractions are abolished by using de jalon's solution. When the spontaneous contractions became regular, the responses to Extracts of Sample A and Sample B and other agonists were recorded using a Frontal lever, isometrically connected to a polygraph.

Consider `CN1CC(=O)N=C1N.NCCc1c[nH]c2ccc(O)cc12.O=S(=O)(O)O` [Formulation 5-HT, 5-hydroxytryptamine creatinine sulphate], for which the “In-vitro treatment (uterine contraction)” value is 1. The control drug 5-HT induced a dose related increase in the height of contraction of rat isolated uterus. and Uterine contraction.
